Like-named read-outs stand apart in the source and are kept apart here.
How the values were obtained:
Assay in all cases: In vitro cytotoxicity of camptothecin analogues (CellTiter-Glo)
Assay type in all cases: cell-based
ZR-75-1 (breast cancer) = settings: Homo sapiens, ZR-75-1, 120 h, read-out: pIC50 ZR-75 (converted)
Method: (§1) Cytotoxicity of the camptothecin analogues was assessed in vitro as follows.
(§2) In vitro potency was assessed on multiple cancer cell lines: SK-BR-3 (breast cancer), SKOV-3 (ovarian cancer), Calu-3 (lung cancer), ZR-75-1 (breast cancer) and MDA-MB-468 (breast cancer). Serial dilutions of camptothecin analogues were prepared in RPMI 1640+10% FBS, and 20 μL of each dilution was added to 384-well plates. Cells cultured in log-phase growth were detached by brief incubation in 0.05% Trypsin and resuspended in respective culturing media at 20,000 cells/mL (with the exception of ZR-75 cells, which were resuspended at 10,000 cells/mL). 50 μL of cell suspension was then added to the plates containing test articles. Cells were incubated with test articles for 4 d at 37° C. (with the exception of ZR-75 cells, which were incubated for 5 d). Growth inhibition was assessed by CellTiter-Glo® (Promega Corporation, Madison, WI) and luminescence was measured on a plate reader. IC50 values were determined by GraphPad Prism (GraphPad Software, San Diego CA).

Calu-3 (lung cancer) = settings: Homo sapiens, Calu-3, 96 h, read-out: pIC50 Calu-3 (converted)
Method: as §1, §2

SKOV-3 (ovarian cancer) = settings: Homo sapiens, SK-OV-3, 96 h, read-out: pIC50 SKOV-3 (converted)
Method: as §1, §2

[1] = test system: MDA-MB-468 (breast cancer); settings: Homo sapiens, MDA-MB-468, 96 h, read-out: pIC50 MDA-MB-468 (converted)
Method: as §1, §2

SK-BR-3 (breast cancer) = settings: Homo sapiens, SK-BR-3, 96 h, read-out: pIC50 SKBR-3 (converted)
Method: as §1, §2

Row | SMILES | IC50 (ZR-75-1 (breast cancer); 5 d incubation) [nM] | IC50 (Calu-3 (lung cancer); 4 d incubation) [nM] | IC50 (SKOV-3 (ovarian cancer); 4 d incubation) [nM] | IC50 ([1]; 4 d incubation) [nM] | IC50 (SK-BR-3 (breast cancer); 4 d incubation) [nM] | IC50 (ZR-75-1 (breast cancer)) [nM] | IC50 (Calu-3 (lung cancer)) [nM] | IC50 (SKOV-3 (ovarian cancer)) [nM] | IC50 [1] [nM] | IC50 (SK-BR-3 (breast cancer)) [nM]
1 | CC[C@@]1(O)C(=O)OCc2c1cc1n(c2=O)Cc2c-1nc1cc(F)c(C)cc1c2CNS(=O)(=O)CCO [Compound 129, (S)—N-((4-ethyl-8-fluoro-4-hydroxy-9-methyl-3,14-dioxo-3,4,12,14-tetrahydro-1H-pyrano[3′,4′:6,7]indolizino[1,2-b]quinolin-11-yl)methyl)-2-hydroxyethane-1-sulfonamide] | 2.63 | 5.25 | 20.4 | 3.98 | 3.09 |  |  |  |  | 
2 | CC[C@@]1(O)C(=O)OCc2c1cc1n(c2=O)Cc2c-1nc1cc(F)c(C)cc1c2CNC(=O)NC [Compound 132, (S)-1-((4-ethyl-8-fluoro-4-hydroxy-9-methyl-3,14-dioxo-3,4,12,14-tetrahydro-1H-pyrano[3′,4′:6,7]indolizino[1,2-b]quinolin-11-yl)methyl)-3-methylurea] | 15.5 | 51.3 | 105 | 26.9 | 22.9 |  |  |  |  | 
3 | CC[C@@]1(O)C(=O)OCc2c1cc1n(c2=O)Cc2c-1nc1cc(F)c(C)cc1c2CN1CCNCC1 [Compound 112, (S)-4-ethyl-8-fluoro-4-hydroxy-9-methyl-11-(piperazin-1-ylmethyl)-1,12-dihydro-14H-pyrano[3′,4′:6,7]indolizino[1,2-b]quinoline-3,14(4H)-dione] | 12 | 17.4 | 20 | 13.5 | 6.61 |  |  |  |  | 
4 | CC[C@@]1(O)C(=O)OCc2c1cc1n(c2=O)Cc2c-1nc1cc(F)c(N)cc1c2CO [Compound 141, (S)-9-amino-4-ethyl-8-fluoro-4-hydroxy-11-(hydroxymethyl)-1,12-dihydro-14H-pyrano[3′,4′:6,7]indolizino[1,2-b]quinoline-3,14(4H)-dione] | 0.309 | 1.02 | 2.82 | 1.45 | 0.347 |  |  |  |  | 
5 | CC[C@@]1(O)C(=O)OCc2c1cc1n(c2=O)Cc2c-1nc1cc(F)c(C)cc1c2CNS(=O)(=O)c1ccc(N)cc1 [Compound 127, (S)-4-amino-N-((4-ethyl-8-fluoro-4-hydroxy-9-methyl-3,14-dioxo-3,4,12,14-tetrahydro-1H-pyrano[3′,4′:6,7]indolizino[1,2-b]quinolin-11-yl)methyl)benzenesulfonamide] |  |  |  |  |  | 5.25 | 9.33 | 14.5 | 3.8 | 3.31
6 | CC[C@@]1(O)C(=O)OCc2c1cc1n(c2=O)Cc2c-1nc1cc(F)c(N)cc1c2CN [Compound 145, (S)-9-amino-11-(aminomethyl)-4-ethyl-8-fluoro-4-hydroxy-1,12-dihydro-14H-pyrano[3′,4′:6,7]indolizino[1,2-b]quinoline-3,14(4H)-dione] | 0.38 | 0.269 | 0.933 | 0.269 | 0.355 |  |  |  |  | 
7 | CC[C@@]1(O)C(=O)OCc2c1cc1n(c2=O)Cc2c-1nc1cc(F)c(N)cc1c2CN1CCN(C)CC1 [Compound 149, (S)-9-amino-4-ethyl-8-fluoro-4-hydroxy-11-((4-methylpiperazin-1-yl)methyl)-1,12-dihydro-14H-pyrano[3′,4′:6,7]indolizino[1,2-b]quinoline-3,14(4H)-dione] | 1.82 | 6.31 | 10 | 6.31 | 3.16 |  |  |  |  | 
8 | CC[C@@]1(O)C(=O)OCc2c1cc1n(c2=O)Cc2c-1nc1cc(F)c(OC)cc1c2CN1CCN(S(=O)(=O)c2ccc(N)cc2)CC1 [Compound 105, (S)-11-((4-((4-aminophenyl)sulfonyl)piperazin-1-yl)methyl)-4-ethyl-8-fluoro-4-hydroxy-9-methoxy-1,12-dihydro-14H-pyrano[3′,4′:6,7]indolizino[1,2-b]quinoline-3,14(4H)-dione] | 3.09 | 4.47 | 10.7 | 2.75 | 3.63 |  |  |  |  | 
9 | CC[C@@]1(O)C(=O)OCc2c1cc1n(c2=O)Cc2c-1nc1cc(F)c(C)cc1c2CN1CCCCC1 [Compound 110, (S)-4-ethyl-8-fluoro-4-hydroxy-9-methyl-11-(piperidin-1-ylmethyl)-1,12-dihydro-14H-pyrano[3′,4′:6,7]indolizino[1,2-b]quinoline-3,14(4H)-dione] | 0.851 | 0.813 | 0.933 | 1.55 | 1.32 |  |  |  |  | 
10 | CC[C@@]1(O)C(=O)OCc2c1cc1n(c2=O)Cc2c-1nc1cc(F)c(C)cc1c2CNC(=O)OC [Compound 138, Methyl-(S)-((4-ethyl-8-fluoro-4-hydroxy-9-methyl-3,14-dioxo-3,4,12,14-tetrahydro-1H-pyrano[3′,4′:6,7]indolizino[1,2-b]quinolin-11-yl)methyl)carbamate] | 0.195 | 0.389 | 0.617 | 0.871 | 0.479 |  |  |  |  | 
11 | CC[C@@]1(O)C(=O)OCc2c1cc1n(c2=O)Cc2c-1nc1cc(F)c(C)cc1c2CN1CCN(C(=O)OC(C)(C)C)CC1 [Compound 111, tert-butyl (S)-4-((4-ethyl-8-fluoro-4-hydroxy-9-methyl-3,14-dioxo-3,4,12,14-tetrahydro-1H-pyrano[3′,4′:6,7]indolizino[1,2-b]quinolin-11-yl)methyl)piperazine-1-carboxylate] | 9.12 | 19.5 | 16.6 | 28.8 | 8.51 |  |  |  |  | 
12 | CC[C@@]1(O)C(=O)OCc2c1cc1n(c2=O)Cc2c-1nc1cc(F)c(C)cc1c2CN1CCN(C)CC1 [Compound 106, (S)-4-ethyl-8-fluoro-4-hydroxy-9-methyl-11-((4-methylpiperazin-1-yl)methyl)-1,12-dihydro-14H-pyrano[3′,4′:6,7]indolizino[1,2-b]quinoline-3,14(4H)-dione] | 3.8 | 4.57 | 7.41 | 9.33 | 3.39 |  |  |  |  | 
13 | CC[C@@]1(O)C(=O)OCc2c1cc1n(c2=O)Cc2c-1nc1cc(F)c(OC)cc1c2CNS(C)(=O)=O [Compound 123, (S)—N-((4-ethyl-8-fluoro-4-hydroxy-9-methoxy-3,14-dioxo-3,4,12,14-tetrahydro-1H-pyrano[3′,4′:6,7]indolizino[1,2-b]quinolin-11-yl)methyl)methanesulfonamide] | 2.45 | 3.72 | 19.5 | 2 | 1.91 |  |  |  |  | 
14 | CC[C@@]1(O)C(=O)OCc2c1cc1n(c2=O)Cc2c-1nc1cc(F)c(N)cc1c2CNC(=O)NC [Compound 144, (S)-1-((9-amino-4-ethyl-8-fluoro-4-hydroxy-3,14-dioxo-3,4,12,14-tetrahydro-1H-pyrano[3′,4′:6,7]indolizino[1,2-b]quinolin-11-yl)methyl)-3-methylurea] | 13.2 | 22.4 | 69.2 | 22.4 | 0.794 |  |  |  |  | 
15 | CC[C@@]1(O)C(=O)OCc2c1cc1n(c2=O)Cc2c-1nc1cc(F)c(C)cc1c2CN1CCOCC1 [Compound 100, (S)-4-ethyl-8-fluoro-4-hydroxy-9-methyl-11-(morpholinomethyl)-1,12-dihydro-14H-pyrano[3′,4′:6,7]indolizino[1,2-b]quinoline-3,14(4H)-dione] | 1.23 | 1.12 | 2.29 | 2.51 | 1.1 |  |  |  |  | 

Source: patent US12433952B2, “Antibody-drug conjugates targeting folate receptor alpha and methods of use” (ZYMEWORKS BC INC., priority 2022, dated 2025)
